Conditions: Liquid, Ebulliometric method (Recirculating still)

CC#N [acetonitrile]
Conditions	vapor or sublimation pressure [kPa]
277.92 K	4.323
278.62 K	4.49
281.57 K	5.247
285.38 K	6.385
287.67 K	7.165
290.65 K	8.296
292.75 K	9.182
295.78 K	10.6
300.82 K	13.37
303.81 K	15.27
309.64 K	19.64
315.43 K	24.97
321.12 K	31.31
325.02 K	36.39
331.27 K	45.91
336.41 K	55.17
341.18 K	65.07
345.57 K	75.44
349.33 K	85.31
352.88 K	95.59
354.55 K	100.75
354.67 K	101.12
357.56 K	110.61
360.94 K	122.63
361.61 K	125.13
368.97 K	155.33
371.74 K	168.12
373.17 K	175.04
378.81 K	204.59
384.11 K	235.79
394.29 K	306.28
405.24 K	399.5
415.21 K	502.67
423.68 K	605.6
431.12 K	708.99
437.3 K	804.86
443.5 K	910.82
449.6 K	1025.5
455.74 K	1152
461.87 K	1290.2
468.37 K	1450.3
474.05 K	1602.6
479.15 K	1749.8
484.77 K	1923.9
490.37 K	2110.8
495.75 K	2303.5
501.48 K	2523.7
506.92 K	2748
512.61 K	2999.2
518.01 K	3254.1
523.15 K	3512.9
527.79 K	3760.4
532.08 K	4001.5
535.03 K	4174.6
